SMILES strings stand for the structures. Where “and” joins values, the source holds several entries; their conditions need not be identical. Equal entries are not always repeated. Structures can show the parent of a compound that is named as a salt. Where two headings read alike, the source gives them in different places.

Data set [1] can be described thus: Comparative bioavailability study of guanfacine in monkeys given guanfacine or guanfacine prodrug. The settings on record: for Cmax: monkey, plasma, po, 0.5 mg/kg. Format: in vivo, monkey. Here is the method:
Blood samples were taken at various times after administration and submitted to analysis for the parent drug and prodrug using a qualified LC-MS-MS assay. The following pharmacokinetic parameters derived from the plasma analytical data were determined using Win Nonlin;

Data set [2] can be described thus: Pharmacokinetics of guanfacine and prodrug in rat hepatic portal and tail veins after oral prodrug. The data set is classed as in vivo. The note with it: 1 mg/kg. From the text: The collection of blood from the hepatic portal vein following oral administration allows the analysis of absorbed prodrug and active drug levels prior to first pass metabolism in the liver. Systemic levels can be measured by sampling of blood from the tail vein. Rats were surgically prepared under isofluorane anaesthesia by attaching a silicon catheter to the portal vein then exteriorising it at the nape of the neck with a blood collection port attached. Oral doses of compound 3 were administered by gavage as a single bolus dose at a dose volume of 10 mL/kg. At each sampling time serial point blood samples (approximately 0.2 mL) were taken simultaneously from the lateral tail vein cannula and the hepatic portal cannula. After collection of the final blood sample each animal was killed by cervical dislocation. […] Pharmacokinetic parameters in portal and systemic plasma were derived by non-compartmental analysis (linear/logarithmic trapezoidal) using WinNonlin (Version 4.1) software.

In the next data set the target is T1, a-2A adrenoceptor (Homo sapiens, UniProt P08913).
T1 construct: expressed in transfected cells; host or cells: CHO cells
T1 sequence (P08913 1-465): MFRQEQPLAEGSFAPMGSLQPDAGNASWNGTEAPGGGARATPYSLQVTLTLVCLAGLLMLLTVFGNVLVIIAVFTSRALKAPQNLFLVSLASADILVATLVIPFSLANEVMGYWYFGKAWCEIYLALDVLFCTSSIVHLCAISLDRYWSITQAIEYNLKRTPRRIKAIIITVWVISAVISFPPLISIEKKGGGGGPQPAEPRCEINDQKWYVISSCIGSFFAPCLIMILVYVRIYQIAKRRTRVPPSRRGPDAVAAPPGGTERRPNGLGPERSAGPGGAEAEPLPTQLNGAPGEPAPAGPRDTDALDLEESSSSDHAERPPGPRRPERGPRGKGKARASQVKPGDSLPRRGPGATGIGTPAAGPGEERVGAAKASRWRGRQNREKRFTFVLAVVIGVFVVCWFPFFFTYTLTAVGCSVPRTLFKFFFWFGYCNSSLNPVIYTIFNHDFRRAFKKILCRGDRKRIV
As to the kind of experiment: a-2 adrenoceptor binding assay, [3H] RX821002 competition. The settings on record: human recombinant CHO cells, [3H] RX821002 (1 nM). An excerpt:
The activation of this receptor is responsible for its intended therapeutic effect. […] The binding assay methodology employed in this study followed that described by […] et al. (Eur. J. Pharmacol. 167:95-104, 1989) and used human recombinant CHO cells expressing a-2 adrenceptors. The competitive binding ligand was [3H]

The subject of the next data set is rat GIT transit. Kind of data set: Charcoal propulsion test (gut motility) in rat. The settings on record: oral; for % inhibition of rat GIT transit: 60 min before charcoal. Format: in vivo. Here is the method:
The effect of a drug on gut motility can be studied by means of the charcoal propulsion test.
The method used was based on that described by Takemori et al. (J. Pharmacol. Exp. Ther. 169:39, 1969). Test treatments were administered orally 60 minutes prior to an oral dose of a 10% suspension of charcoal in 2.5% gum Arabic (2 ml/kg). Twenty minutes after dosing with charcoal, the rats were sacrificed and the entire gastrointestinal tract was removed quickly and carefully. The distance that the charcoal meal had traveled toward the caecum was measured and expressed as a percentage of the total gut length.

Data set [3] can be described thus: Microdose comparative bioavailability study in healthy adult subjects. The data set is classed as in vivo. The note with it: both sexes, plasma, healthy human volunteers, oral, 100 µg free base. The procedure:
Blood samples were withdrawn pre-dose and at 0.5, 1, 2, 3, 4, 5, 6, 8, 12, 16, 24, 32, and 48 hours post dose and submitted to analysis for the parent drug and prodrug using a validated LC-MS-MS assay. The following pharmacokinetic parameters derived from the plasma analytical data were determined;

Another data set is described as follows: Solubility. The settings on record: Solubility.
A short description of data set [4]: Stability studies on guanfacine prodrugs in buffers. The data set is classed as physicochemical.
For another data set, the system named is rat. As to the kind of experiment: Elevated Plus-Maze Test in the rat. The data set is classed as in vivo. An excerpt: The method, which detects anxiolytic activity, follows that described by Handley and Mithani (Naunyn. Schmied. Arch. Pharmacol., 327, 1-5, 1984). Rodents avoid open spaces (the open arms of an elevated plus-maze). The percentage of time spent on the open arms and the number of entries in the open arms are considered to be the best measures of anxiety (File, S. E. 1991. Animal models of anxiety. In Biological Psychiatry (G. Racagni, N. Brunello, and T. Fukuda, eds.) pp. 596-599. Elsevier, New York.).
Anxiolytics increase exploratory activity in the open arms, as indicated by increased time spent on the open arms and/or by increased % open-arm entries.

For data set [5] the following is noted: as early as; cited from earlier work.
[6] abbreviates: dose 00.1 mg/kg (guanfacine free base equivalents).
[7] abbreviates: dose 00.3 mg/kg (guanfacine free base equivalents).
The mark [8] stands for this setting: DMSO, organic solvent or mixture, in DMSO.
The mark [9] stands for this setting: pH 1.2, 37° C., 0.1M HCl/NaCl buffer, 1 h.
Setting [10] is: pH 1.2, 37° C., 0.1M HCl/NaCl buffer, time 0.
Where [11] appears, read: pH 3.0, 20° C., 0.1M citrate buffer, 2 h.
The mark [12] stands for this setting: pH 3.0, 20° C., 0.1M citrate buffer, time 0.
[13] abbreviates: pH 6.8, 37° C., 0.1M phosphate buffer, 2 h.
The mark [14] stands for this setting: pH 6.8, 37° C., 0.1M phosphate buffer, time 0.
Setting [15] is: pH 7.4, 37° C., 0.1M phosphate buffer, time 0.
The mark [16] stands for this setting: pH 7.4, 37° C., 0.1M phosphate buffer, 2 h, listed as Guanfacine (2-Hydroxyethyl) Carbamate.

Regarding `CCOC(=O)NC(N)=NC(=O)Cc1c(Cl)cccc1Cl.Cl` [Compound 3, {N′-[2-(2,6-Dichloro-phenyl)-acetyl]-guanidinocarbonyloxy}ethane Hydrochloride], the Cmax in data set [1] is 0.93 ng/mL; in data set [2] (hepatic portal vein plasma, read-out: Hepatic portal vein Prodrug Cmax), 149 ng/mL; in data set [2] (tail vein (systemic) plasma, read-out: Tail vein Prodrug Cmax), 16.4 ng/mL; in [3] (read-out: Cmax, analyte Compound 3), 0.089 ± 0.038 ng/mL. In addition, the “Time after administration up to which systemic prodrug was detectable” value in [1] (monkeys, 0.5 mg/kg guanfacine free base equivalents) is “up to 24 hours”. Also, the AUC is 397 ng·h/mL in data set [2] (hepatic portal vein plasma, read-out: Hepatic portal vein Prodrug AUC) and 88.6 ng·h/mL in data set [2] (tail vein (systemic) plasma, read-out: Tail vein Prodrug AUC). Further, at a-2A adrenoceptor, the Ki was > 10 µM. For the same molecule, the “% inhibition of rat GIT transit” value was 15% in the data set on rat GIT transit (setting [6]), 56% in the data set with rat GIT transit (setting [7]) and 57% in the data set on rat GIT transit (dose 100 mg/kg (guanfacine free base equivalents)). Further, the half-life in [3] (n = 4, read-out: t½, analyte Compound 3 (converted)) is 57 ± 11.4 min. Besides, the AUC(0-t) in [3] (read-out: AUC0-t, analyte Compound 3) came to 0.092 ± 0.043 ng·h/mL. The solubility is > 10000 µg/mL in “Solubility” (setting [8]) and < 1000 µg/mL in the data set “Solubility” (water, in water).

Turning to `CCC(C)OC(=O)NC(N)=NC(=O)Cc1c(Cl)cccc1Cl.Cl` (stereo not drawn) [Compound 7, 2-{N′-[2-(2,6-Dichloro-phenyl)-acetyl]-guanidinocarbonyloxy}-butane Hydrochloride], the Active drug in data set [4] (setting [9]), in [4] (setting [10]), in data set [4] (setting [11]), in [4] (setting [12]), in data set [4] (setting [13]) and in data set [4] (setting [14]) was 0.0 each time. The Active drug in data set [4] (pH 7.4, 37° C., 0.1M phosphate buffer, 2 h) is on record as 0.0; in data set [4] (setting [15]) it was 0.0. The Pro-drug in [4] (setting [9]) was 95.9; in [4] (setting [10]) it was 100; in [4] (pH 3.0, 20° C., 0.1M citrate buffer, 2 h, listed as Guanfacine 2-Butanol Carbamate Hydrochloride, Hydrochloride), 98.7 and 98.9; in [4] (setting [12]) it was 100; in data set [4] (setting [13]), 93.4; in data set [4] (setting [14]), 100. Further, the Pro-drug in [4] (pH 7.4, 37° C., 0.1M phosphate buffer, 2 h, listed as Guanfacine 2-Butanol Carbamate Hydrochloride, Hydrochloride) is 93.4 and 93.6; in data set [4] (setting [15]) it was 100. For the same molecule, the figures for the solubility in “physchem” (organic solvent or mixture) and in the data set “physchem” (water) were > 10000 µg/mL and < 1000 µg/mL, respectively.

`NC(=NC(=O)Cc1c(Cl)cccc1Cl)NC(=O)OCCO` [Compound 19, 2-{N′-[2-(2,6-Dichloro-phenyl)-acetyl]-guanidinocarbonyloxy}ethanol]: the Active drug was found to be 0.5 in data set [4] (setting [9]); 0.0 in [4] (setting [10]); 0.4 in data set [4] (setting [11]); 0.0 in [4] (setting [12]); 9.8 in [4] (setting [13]); 0.0 in data set [4] (setting [14]). In addition, the Active drug in data set [4] (setting [16]) was 22.6 and 22.3; in data set [4] (setting [15]), 0.0. The Pro-drug is 91.4 and 91.5 in [4] (pH 1.2, 37° C., 0.1M HCl/NaCl buffer, 1 h, listed as Guanfacine (2-Hydroxyethyl) Carbamate); 100 in data set [4] (setting [10]); 98.0 in data set [4] (setting [11]); 100 in data set [4] (setting [12]); 87.4 and 87.5 in data set [4] (pH 6.8, 37° C., 0.1M phosphate buffer, 2 h, listed as Guanfacine (2-Hydroxyethyl) Carbamate); 100 in data set [4] (setting [14]). For the same molecule, the Pro-drug was 72.5 and 73.0 in [4] (setting [16]); 100 in [4] (setting [15]). Further, the Cmax in data set [1] turned out to be 60.8 ng/mL. For the same molecule, the “Change in time spent in the open arms” value in the data set on rat (10 mg/kg, NS) is given as “+69%”. Also, the “Change in percent of entries in open arms” value in the data set on rat (10 mg/kg, p<0.05) is on record as “+87%”. In addition, in the data set on rat (rat), the “Efficacy in the Elevated Plus-Maze Test” value is “efficacious”. Further, the solubility in the data set “Solubility” (setting [8]) is > 10000 µg/mL; in the data set “Solubility” (water, in water), < 1000 µg/mL; in “Solubility” (water/CH3CN (1:1), aqueous with cosolvent or surfactant or cyclodextrin, in water/CH3CN (1:1)) it was > 10000 µg/mL.

Turning to `N=C(N)NC(=O)Cc1c(Cl)cccc1Cl` [Guanfacine, N-Amidino-2-(2,6-dichlorophenyl)acetamide monohydrochloride, reference compound], the “% inhibition of rat GIT transit” value in the data set with rat GIT transit (setting [6]) is given as 41%; in the data set with rat GIT transit (setting [7]), 56%. The “Reduction in the distance traveled by the charcoal plug within 20 minutes, compared to control group” value in the data set on rat GIT transit (0.1 mg base/kg) was “about 41%”. Besides, the “Time after dosing at which peak plasma drug levels are reached” value in [5] is ≥ 1 h.

The record behind these values is patent publication US20120065152A1 (SHIRE LLC, priority 2010, published 2012).
